Measured values as given in US11351157B2, “Treatment of immunological disease using berberine nanoparticles” (Icahn School of Medicine at Mount Sinai, priority 2016, dated 2022).
Like-named read-outs stand apart in the source and are kept apart here.

B1: quilizumab: mIgE (membrane-bound IgE) targeting antibody studied in clinical trials (antibody, chains of the INN, looked up, V domains shown)
VH: EVQLVESGGGLVQPGGSLRLSCAASGFTFSDYGIAWVRQAPGKGLEWVAFISDLAYTIYYADTVTGRFTISRDNSKNTLYLQMNSLRAEDTAVYYCARDNWDAMDYWGQGTLVTVSS
VL: DIQMTQSPSSLSASVGDRVTITCRSSQSLVHNNANTYLHWYQQKPGKAPKLLIYKVSNRFSGVPSRFSGSGSGTDFTLTISSLQPEDFATYYCSQNTLVPWTFGQGTKVEIK

Legend:
[1] = in vivo; cited from earlier work
peanut-specific IgE = experiment: Peanut-specific IgE in serum of peanut-sensitized mice (ELISA); assay type: in vivo, C3H/HeJ mice; conditions: two oral courses, vs Sham
Excerpt: Six-week-old female C3H/HeJ mice purchased from the Jackson Laboratory (Bar Harbor, Me.) were maintained in pathogen-free facilities at the Mount Sinai vivarium on peanut-free chow according to standard guidelines for the care and use of animals. Institute of Laboratory Animal Resources Commission of Life Sciences NRC. Guide for the Care and Use of Laboratory Animals: National Academic Press, 1996. […] Some mice were sensitized to egg white (EW) using a similar protocol. Subsequently, daily oral treatment with BBR-nanoparticles was administered in 4-week and 2-week phases with an interval of 2 weeks at times indicated. Mice were periodically challenged with systemic and oral challenges at approximately 6 week intervals, as indicated. In some experiments mice were given intraperitoneal injections of 100 μg of anti-CD8 or anti-IFNγ antibodies, one day prior and then twice weekly during treatment period. Microtitre plates were coated with defatted protein extracts of peanut or egg white (sample wells) and rat anti-mouse IgE (reference wells) and held overnight at 4° C. After washing three times, plates were blocked for 2 hours at room temperature with 2% BSA-PBS. After three washes plates were incubated with diluted serum samples overnight at 4° C. […] Total IgA, peanut specific IgG1 and IgG2a levels were measured as described in a previous publication. […]

P-glycoprotein = conditions: mediated by P-glycoprotein; cited from earlier work
human B cells = conditions: cited from earlier work; for IgE production by human B cells: human B cells / U266 cells
[2] = test system: peripheral blood mononuclear cells (PBMCs); conditions: cited from earlier work; for IgE production by PBMCs: PBMCs from patients with food allergy
[3] = biological target: T1, mIgE (membrane-bound IgE) (Homo sapiens, UniProt P01854); conditions: clinical trials; cited from earlier work
T1 construct: host or cells: endogenous mIgE on IgE-lineage B cells of human trial subjects
T1 sequence (P01854 whole entry): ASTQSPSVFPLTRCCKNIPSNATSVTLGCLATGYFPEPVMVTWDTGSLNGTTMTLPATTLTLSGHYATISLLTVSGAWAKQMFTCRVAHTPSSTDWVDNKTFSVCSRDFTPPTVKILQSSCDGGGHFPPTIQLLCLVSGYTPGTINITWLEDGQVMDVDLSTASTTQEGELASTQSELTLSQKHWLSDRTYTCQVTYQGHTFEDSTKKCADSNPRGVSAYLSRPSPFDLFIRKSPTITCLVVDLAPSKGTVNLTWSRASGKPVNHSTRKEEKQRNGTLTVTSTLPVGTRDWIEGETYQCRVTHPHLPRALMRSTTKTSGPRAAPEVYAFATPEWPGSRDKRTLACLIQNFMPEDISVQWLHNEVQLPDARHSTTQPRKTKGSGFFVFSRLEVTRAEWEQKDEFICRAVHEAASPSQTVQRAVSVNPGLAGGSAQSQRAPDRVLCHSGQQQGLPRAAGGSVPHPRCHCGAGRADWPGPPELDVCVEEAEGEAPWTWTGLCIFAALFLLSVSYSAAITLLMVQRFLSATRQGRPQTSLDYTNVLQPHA
T1 sequence (P11912 33-226 partner): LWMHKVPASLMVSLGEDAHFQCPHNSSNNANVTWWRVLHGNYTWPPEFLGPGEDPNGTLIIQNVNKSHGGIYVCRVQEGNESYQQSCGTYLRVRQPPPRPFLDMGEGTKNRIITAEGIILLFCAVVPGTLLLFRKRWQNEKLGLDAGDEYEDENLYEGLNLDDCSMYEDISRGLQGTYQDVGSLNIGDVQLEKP
T1 sequence (P40259 29-229 partner): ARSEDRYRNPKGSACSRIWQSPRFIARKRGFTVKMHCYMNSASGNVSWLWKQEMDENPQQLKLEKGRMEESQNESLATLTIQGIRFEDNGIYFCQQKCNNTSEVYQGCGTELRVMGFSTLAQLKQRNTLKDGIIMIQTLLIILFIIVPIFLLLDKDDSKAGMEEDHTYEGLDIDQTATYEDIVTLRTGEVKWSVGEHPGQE

| Molecule | Berberine taken up by the gastrointestinal tract [1] | Bioavailability [1] | Peanut-specific IgE (peanut-specific IgE) | Rate of efflux from intestinal epithelial cells (P-glycoprotein) | IC50 of IgE production (human B cells) | IgE production by human B cells (human B cells) | IgE production by human B cells (human B cells; listed as Berberine) | IgE production by PBMCs [2] | IgE production by PBMCs ([2]; listed as Berberine) | Cytotoxicity of inhibition in PBMCs [2] | Clinical benefit in early human studies [3] | IgE reduction in early human studies [3] |
| --- | --- | --- | --- | --- | --- | --- | --- | --- | --- | --- | --- | --- |
| COc1ccc2cc3[n+](cc2c1OC)CCc1cc2c(cc1-3)OCO2 [berberine, Berberine] | less than 5% | less than 1% | not | up to 95% | 0.1962 µg/mL | significant reduction | significantly reduced | significant reduction | significantly reduced | non-cytotoxic |  |  |
| B1 |  |  |  |  |  |  |  |  |  |  | without any significant clinical benefit | only moderate IgE reduction |
